Results: PubChem BioAssay (NCI)
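Test compounds were applied to cells in 96-well plates for 48 hours at 5 doses. Abbreviation: GI50, concentration required for 50% inhibition of growth. TGI: concentration producing complete growth inhibition.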

Legend:
Assay in all cases: NCI-60 cell line screen, 48 h
TK-10 renal = tested on: TK-10 renal
OVCAR-8 ovarian = tested on: OVCAR-8 ovarian
SF-268 CNS = tested on: SF-268 CNS
LOX IMVI melanoma = tested on: LOX IMVI melanoma
SNB-75 CNS = tested on: SNB-75 CNS
SNB-19 CNS = tested on: SNB-19 CNS
EKVX NSCLC = tested on: EKVX NSCLC
HCC-2998 colon = tested on: HCC-2998 colon
NCI/ADR-RES ovarian = tested on: NCI/ADR-RES ovarian
OVCAR-4 ovarian = tested on: OVCAR-4 ovarian
NCI-H522 lung = tested on: NCI-H522 lung
MALME-3M melanoma = tested on: MALME-3M melanoma
SW-620 colon = tested on: SW-620 colon
HOP-62 NSCLC = tested on: HOP-62 NSCLC
OVCAR-5 ovarian = tested on: OVCAR-5 ovarian
HOP-92 NSCLC = tested on: HOP-92 NSCLC
KM12 colon = tested on: KM12 colon
MDA-MB-468 breast = tested on: MDA-MB-468 breast
IGROV1 ovarian = tested on: IGROV1 ovarian
A549 NSCLC = tested on: A549 NSCLC
NCI-H23 lung = tested on: NCI-H23 lung
SR leukemia = tested on: SR leukemia
HL-60(TB) leukemia = tested on: HL-60(TB) leukemia
HS 578T breast = tested on: HS 578T breast
SF-295 CNS = tested on: SF-295 CNS
MOLT-4 leukemia = tested on: MOLT-4 leukemia
NCI-H226 lung = tested on: NCI-H226 lung
OVCAR-3 ovarian = tested on: OVCAR-3 ovarian
K-562 leukemia = tested on: K-562 leukemia
A498 renal = tested on: A498 renal
HT29 colon = tested on: HT29 colon
BT-549 breast = tested on: BT-549 breast
CAKI-1 renal = tested on: CAKI-1 renal
SN12C renal = tested on: SN12C renal
T-47D breast = tested on: T-47D breast
ACHN renal = tested on: ACHN renal
MCF7 breast = tested on: MCF7 breast
PC-3 prostate = tested on: PC-3 prostate
SF-539 CNS = tested on: SF-539 CNS
M14 melanoma = tested on: M14 melanoma
DU-145 prostate = tested on: DU-145 prostate
SK-MEL-28 melanoma = tested on: SK-MEL-28 melanoma
HCT-15 colon = tested on: HCT-15 colon
RXF 393 renal = tested on: RXF 393 renal
SK-MEL-2 melanoma = tested on: SK-MEL-2 melanoma
SK-MEL-5 melanoma = tested on: SK-MEL-5 melanoma
UACC-62 melanoma = tested on: UACC-62 melanoma
U251 CNS = tested on: U251 CNS
UO-31 renal = tested on: UO-31 renal
SK-OV-3 ovarian = tested on: SK-OV-3 ovarian
MDA-MB-435 = tested on: MDA-MB-435
NCI-H460 lung = tested on: NCI-H460 lung
COLO 205 colon = tested on: COLO 205 colon
UACC-257 melanoma = tested on: UACC-257 melanoma
MDA-MB-231 breast = tested on: MDA-MB-231 breast
RPMI-8226 leukemia = tested on: RPMI-8226 leukemia

## CC(=O)Nc1ccc(-c2cn(-c3cccc(C(=O)Nc4ccc(Cl)c(C(F)(F)F)c4)c3)nn2)cn1
TK-10 renal
  GI50: 2.3 µM
  TGI: 4.68 µM
OVCAR-8 ovarian
  GI50: 2.02 µM
  TGI: 4.66 µM
SF-268 CNS
  GI50: 2.3 µM
  TGI: 5.73 µM
LOX IMVI melanoma
  GI50: 1.39 µM
  TGI: 2.72 µM
SNB-75 CNS
  GI50: 1.61 µM
  TGI: 4.47 µM
SNB-19 CNS
  GI50: 2.24 µM
  TGI: 4.7 µM
EKVX NSCLC
  GI50: 1.89 µM
  TGI: 3.92 µM
HCC-2998 colon
  GI50: 1.87 µM
  TGI: 4.02 µM
NCI/ADR-RES ovarian
  GI50: 3.5 µM
  TGI: 17.8 µM
OVCAR-4 ovarian
  GI50: 2.53 µM
  TGI: 7.39 µM
NCI-H522 lung
  GI50: 1.71 µM
  TGI: 3.6 µM
MALME-3M melanoma
  GI50: 0.559 µM
  TGI: 1.95 µM
SW-620 colon
  GI50: 1.57 µM
  TGI: 3.29 µM
HOP-62 NSCLC
  GI50: 1.67 µM
  TGI: 3.49 µM
OVCAR-5 ovarian
  GI50: 1.93 µM
  TGI: 4.86 µM
HOP-92 NSCLC
  GI50: 1.58 µM
  TGI: 3.6 µM
KM12 colon
  GI50: 1.81 µM
  TGI: 6.37 µM
MDA-MB-468 breast
  GI50: 1.45 µM
  TGI: 3.02 µM
IGROV1 ovarian
  GI50: 1.7 µM
  TGI: 3.36 µM
A549 NSCLC
  GI50: 1.86 µM
  TGI: 3.86 µM
NCI-H23 lung
  GI50: 1.52 µM
  TGI: 2.98 µM
SR leukemia
  GI50: 1.86 µM
  TGI: > 100 µM
HL-60(TB) leukemia
  GI50: 0.824 µM
  TGI: > 100 µM
HS 578T breast
  GI50: 2.03 µM
  TGI: 7.01 µM
SF-295 CNS
  GI50: 1.51 µM
  TGI: 2.91 µM
MOLT-4 leukemia
  GI50: 2.62 µM
  TGI: 7.99 µM
NCI-H226 lung
  GI50: 1.87 µM
  TGI: 3.78 µM
OVCAR-3 ovarian
  GI50: 1.92 µM
  TGI: 3.62 µM
K-562 leukemia
  GI50: 1.32 µM
  TGI: 5.89 µM
A498 renal
  GI50: 2.9 µM
  TGI: 5.46 µM
HT29 colon
  GI50: 1.43 µM
  TGI: 3.09 µM
BT-549 breast
  GI50: 1.69 µM
  TGI: 3.5 µM
CAKI-1 renal
  GI50: 1.78 µM
  TGI: 3.54 µM
SN12C renal
  GI50: 1.77 µM
  TGI: 3.49 µM
T-47D breast
  GI50: 2.47 µM
  TGI: 7.93 µM
ACHN renal
  GI50: 1.93 µM
  TGI: 4.04 µM
MCF7 breast
  GI50: 1.82 µM
  TGI: 4.12 µM
PC-3 prostate
  GI50: 1.83 µM
  TGI: 5.21 µM
SF-539 CNS
  GI50: 1.44 µM
  TGI: 2.82 µM
M14 melanoma
  GI50: 1.12 µM
  TGI: 3.46 µM
DU-145 prostate
  GI50: 2.83 µM
  TGI: 8.43 µM
SK-MEL-28 melanoma
  GI50: 1.35 µM
  TGI: 2.82 µM
HCT-15 colon
  GI50: 2.02 µM
  TGI: 4.28 µM
RXF 393 renal
  GI50: 1.69 µM
  TGI: 3.5 µM
SK-MEL-2 melanoma
  GI50: 1.65 µM
  TGI: 3.78 µM
SK-MEL-5 melanoma
  GI50: 1.9 µM
  TGI: 4.3 µM
UACC-62 melanoma
  GI50: 1.29 µM
  TGI: 2.79 µM
U251 CNS
  GI50: 1.85 µM
  TGI: 3.59 µM
UO-31 renal
  GI50: 1.64 µM
  TGI: 3.54 µM
SK-OV-3 ovarian
  GI50: 2.01 µM
  TGI: 5.17 µM
MDA-MB-435
  GI50: 1.39 µM
  TGI: 3.05 µM
NCI-H460 lung
  GI50: 1.5 µM
  TGI: 3.05 µM
COLO 205 colon
  GI50: 1.47 µM
  TGI: 3.45 µM
UACC-257 melanoma
  GI50: 1.56 µM
  TGI: 3.5 µM
MDA-MB-231 breast
  GI50: 1.09 µM
  TGI: 2.39 µM
RPMI-8226 leukemia
  GI50: 2.5 µM
  TGI: 34.7 µM
